In brackets after ≈: the same amount, converted by molar mass.
Key:
Candida tropicalis = assay: Inhibition of Candida tropicalis ATCC 750 chitin synthase at 300 ug/ml using UDP-GlcNAc as substrate relative to control
Candida albicans [1] = assay: Antifungal activity against Candida albicans ATCC 76615 assessed as growth inhibition measured after 24 hrs by two-fold broth dilution method; assay type: functional; conditions: ATCC 76615, 24 h
Aspergillus fumigatus = assay: Antifungal activity against Aspergillus fumigatus GIMCC 3.19 assessed as growth inhibition measured after 24 hrs by two-fold broth dilution method; assay type: functional; conditions: GIMCC 3.19, 24 h
Candida albicans [2] = assay: Antifungal activity against Candida albicans ATCC 90023 assessed as growth inhibition measured after 24 hrs by two-fold broth dilution method; assay type: functional; conditions: ATCC 90023, 24 h
Cryptococcus neoformans = assay: Antifungal activity against Cryptococcus neoformans ATCC 32719 assessed as growth inhibition measured after 24 hrs by two-fold broth dilution method; assay type: functional; conditions: ATCC 32719, 24 h
Aspergillus flavus = assay: Antifungal activity against Aspergillus flavus ATCC 16870 assessed as growth inhibition measured after 24 hrs by two-fold broth dilution method; assay type: functional; conditions: ATCC 16870, 24 h
Staphylococcus aureus [3] = assay: Antibacterial activity against methicillin-resistant Staphylococcus aureus N315 assessed as growth inhibition measured after 24 hrs by two-fold broth dilution method; assay type: functional; conditions: N315, 24 h
Staphylococcus aureus [4] = assay: Antibacterial activity against Staphylococcus aureus ATCC 25923 assessed as growth inhibition measured after 24 hrs by two-fold broth dilution method; assay type: functional; conditions: ATCC 25923, 24 h
Bacillus spizizenii = assay: Antibacterial activity against Bacillus subtilis ATCC 6633 assessed as growth inhibition measured after 24 hrs by two-fold broth dilution method; assay type: functional; conditions: ATCC 6633, 24 h
Escherichia coli = assay: Antibacterial activity against Escherichia coli JM 109 assessed as growth inhibition measured after 24 hrs by two-fold broth dilution method; assay type: functional; conditions: JM 109, 24 h
Pseudomonas aeruginosa = assay: Antibacterial activity against Pseudomonas aeruginosa ATCC 9027 assessed as growth inhibition measured after 24 hrs by two-fold broth dilution method; assay type: functional; conditions: ATCC 9027, 24 h
Proteus vulgaris = assay: Antibacterial activity against Bacillus proteus ATCC 8427 assessed as growth inhibition measured after 24 hrs by two-fold broth dilution method; assay type: functional; conditions: ATCC 8427, 24 h
[5] = Inhibition of Candida tropicalis ATCC 750 chitin synthase using UDP-GlcNAc as substrate

Compound	inhibition (Candida tropicalis)	MIC (Candida albicans [1])	MIC (Aspergillus fumigatus)	MIC (Candida albicans [2])	MIC (Cryptococcus neoformans)	MIC (Aspergillus flavus)	MIC (Staphylococcus aureus [3])	MIC (Staphylococcus aureus [4])	MIC (Bacillus spizizenii)	MIC (Escherichia coli)	MIC (Pseudomonas aeruginosa)	MIC (Proteus vulgaris)	IC50 [5]
Cc1ccc(NC(=O)[C@H](O)[C@@H](O)C(=O)N2CCC3(CCNC3=O)CC2)cc1	48.7%	340 µM (≈ 128 µg/mL)	680 µM (≈ 255 µg/mL)	680 µM (≈ 255 µg/mL)	340 µM (≈ 128 µg/mL)	170 µM (≈ 63.8 µg/mL)	340 µM (≈ 128 µg/mL)	170 µM (≈ 63.8 µg/mL)	680 µM (≈ 255 µg/mL)	340 µM (≈ 128 µg/mL)	170 µM (≈ 63.8 µg/mL)	680 µM (≈ 255 µg/mL)	
NC(=O)OC[C@H](O)[C@@H](O)[C@H](N)C(=O)N[C@H](C(=O)O)[C@H]1O[C@@H](n2cc(CO)c(=O)[nH]c2=O)[C@H](O)[C@@H]1O [POLYOXIN B]	85%	32 µM (≈ 16.2 µg/mL)	32 µM (≈ 16.2 µg/mL)	129 µM (≈ 65.5 µg/mL)	64 µM (≈ 32.5 µg/mL)	32 µM (≈ 16.2 µg/mL)							80 µM
O=C(Nc1ccc(F)cc1)[C@H](O)[C@@H](O)C(=O)N1CCC2(CCNC2=O)CC1	36.7%	340 µM (≈ 129 µg/mL)	340 µM (≈ 129 µg/mL)	340 µM (≈ 129 µg/mL)	670 µM (≈ 254 µg/mL)	340 µM (≈ 129 µg/mL)	340 µM (≈ 129 µg/mL)	670 µM (≈ 254 µg/mL)	340 µM (≈ 129 µg/mL)	670 µM (≈ 254 µg/mL)	1350 µM (≈ 512 µg/mL)	340 µM (≈ 129 µg/mL)	
O=C(Nc1ccc(F)cc1F)[C@H](O)[C@@H](O)C(=O)N1CCC2(CCNC2=O)CC1	65.2%	640 µM (≈ 254 µg/mL)	80 µM (≈ 31.8 µg/mL)	320 µM (≈ 127 µg/mL)	640 µM (≈ 254 µg/mL)	320 µM (≈ 127 µg/mL)	80 µM (≈ 31.8 µg/mL)	320 µM (≈ 127 µg/mL)	160 µM (≈ 63.6 µg/mL)	320 µM (≈ 127 µg/mL)	320 µM (≈ 127 µg/mL)	160 µM (≈ 63.6 µg/mL)	290 µM
Cc1ccccc1NC(=O)[C@H](O)[C@@H](O)C(=O)N1CCC2(CCNC2=O)CC1	49.8%	1360 µM (≈ 511 µg/mL)	340 µM (≈ 128 µg/mL)	170 µM (≈ 63.8 µg/mL)	680 µM (≈ 255 µg/mL)	1360 µM (≈ 511 µg/mL)	680 µM (≈ 255 µg/mL)	680 µM (≈ 255 µg/mL)	340 µM (≈ 128 µg/mL)	680 µM (≈ 255 µg/mL)	340 µM (≈ 128 µg/mL)	680 µM (≈ 255 µg/mL)	
O=C(Nc1cccc(C(F)(F)F)c1)[C@H](O)[C@@H](O)C(=O)N1CCC2(CCNC2=O)CC1	47.1%	300 µM (≈ 129 µg/mL)	600 µM (≈ 258 µg/mL)	300 µM (≈ 129 µg/mL)	70 µM (≈ 30.1 µg/mL)	60 µM (≈ 25.8 µg/mL)	300 µM (≈ 129 µg/mL)	300 µM (≈ 129 µg/mL)	150 µM (≈ 64.4 µg/mL)	150 µM (≈ 64.4 µg/mL)	300 µM (≈ 129 µg/mL)	150 µM (≈ 64.4 µg/mL)	
COc1ccccc1NC(=O)[C@H](O)[C@@H](O)C(=O)N1CCC2(CCNC2=O)CC1	20.4%	650 µM (≈ 254 µg/mL)	330 µM (≈ 129 µg/mL)	40 µM (≈ 15.7 µg/mL)	330 µM (≈ 129 µg/mL)	650 µM (≈ 254 µg/mL)	330 µM (≈ 129 µg/mL)	1310 µM (≈ 513 µg/mL)	650 µM (≈ 254 µg/mL)	650 µM (≈ 254 µg/mL)	650 µM (≈ 254 µg/mL)	330 µM (≈ 129 µg/mL)	
O=C(Nc1ccc(Br)cc1)[C@H](O)[C@@H](O)C(=O)N1CCC2(CCNC2=O)CC1	74.7%	290 µM (≈ 128 µg/mL)	1160 µM (≈ 511 µg/mL)	290 µM (≈ 128 µg/mL)	1160 µM (≈ 511 µg/mL)	150 µM (≈ 66 µg/mL)	1160 µM (≈ 511 µg/mL)	580 µM (≈ 255 µg/mL)	580 µM (≈ 255 µg/mL)	1160 µM (≈ 511 µg/mL)	290 µM (≈ 128 µg/mL)	1160 µM (≈ 511 µg/mL)	180 µM
O=C(Nc1ccc(F)c(F)c1)[C@H](O)[C@@H](O)C(=O)N1CCC2(CCNC2=O)CC1	36.7%	640 µM (≈ 254 µg/mL)	1290 µM (≈ 513 µg/mL)	320 µM (≈ 127 µg/mL)	80 µM (≈ 31.8 µg/mL)	320 µM (≈ 127 µg/mL)	1290 µM (≈ 513 µg/mL)	640 µM (≈ 254 µg/mL)	640 µM (≈ 254 µg/mL)	640 µM (≈ 254 µg/mL)	320 µM (≈ 127 µg/mL)	640 µM (≈ 254 µg/mL)	
CN[C@@H]1[C@H](O[C@H]2[C@H](O[C@H]3[C@H](O)[C@@H](O)[C@H](N=C(N)N)[C@@H](O)[C@@H]3N=C(N)N)O[C@@H](C)[C@]2(O)C=O)O[C@@H](CO)[C@H](O)[C@H]1O [STREPTOMYCIN]							55 µM (≈ 32 µg/mL)	28 µM (≈ 16.3 µg/mL)	28 µM (≈ 16.3 µg/mL)	14 µM (≈ 8.14 µg/mL)	7 µM (≈ 4.07 µg/mL)	14 µM (≈ 8.14 µg/mL)	
OC(Cn1cncn1)(Cn1cncn1)c1ccc(F)cc1F [FLUCONAZOLE]		52 µM (≈ 15.9 µg/mL)	104 µM (≈ 31.9 µg/mL)	104 µM (≈ 31.9 µg/mL)	52 µM (≈ 15.9 µg/mL)	209 µM (≈ 64 µg/mL)							
O=C(Nc1ccccc1Cl)[C@H](O)[C@@H](O)C(=O)N1CCC2(CCNC2=O)CC1	85.5%	1290 µM (≈ 511 µg/mL)	320 µM (≈ 127 µg/mL)	1290 µM (≈ 511 µg/mL)	320 µM (≈ 127 µg/mL)	1290 µM (≈ 511 µg/mL)	320 µM (≈ 127 µg/mL)	160 µM (≈ 63.3 µg/mL)	650 µM (≈ 257 µg/mL)	320 µM (≈ 127 µg/mL)	320 µM (≈ 127 µg/mL)	160 µM (≈ 63.3 µg/mL)	140 µM
O=C(Nc1ccc([N+](=O)[O-])cc1)[C@H](O)[C@@H](O)C(=O)N1CCC2(CCNC2=O)CC1	58.4%	1260 µM (≈ 512 µg/mL)	310 µM (≈ 126 µg/mL)	1260 µM (≈ 512 µg/mL)	1260 µM (≈ 512 µg/mL)	1260 µM (≈ 512 µg/mL)	630 µM (≈ 256 µg/mL)	160 µM (≈ 65 µg/mL)	1260 µM (≈ 512 µg/mL)	310 µM (≈ 126 µg/mL)	630 µM (≈ 256 µg/mL)	310 µM (≈ 126 µg/mL)	390 µM
O=C(Nc1ccccc1F)[C@H](O)[C@@H](O)C(=O)N1CCC2(CCNC2=O)CC1	23.1%	340 µM (≈ 129 µg/mL)	670 µM (≈ 254 µg/mL)	670 µM (≈ 254 µg/mL)	670 µM (≈ 254 µg/mL)	340 µM (≈ 129 µg/mL)	340 µM (≈ 129 µg/mL)	340 µM (≈ 129 µg/mL)	670 µM (≈ 254 µg/mL)	670 µM (≈ 254 µg/mL)	1350 µM (≈ 512 µg/mL)	670 µM (≈ 254 µg/mL)	
COc1cccc(NC(=O)[C@H](O)[C@@H](O)C(=O)N2CCC3(CCNC3=O)CC2)c1	47.5%	160 µM (≈ 62.6 µg/mL)	330 µM (≈ 129 µg/mL)	650 µM (≈ 254 µg/mL)	330 µM (≈ 129 µg/mL)	650 µM (≈ 254 µg/mL)	650 µM (≈ 254 µg/mL)	650 µM (≈ 254 µg/mL)	330 µM (≈ 129 µg/mL)	650 µM (≈ 254 µg/mL)	650 µM (≈ 254 µg/mL)	650 µM (≈ 254 µg/mL)	
O=C(Nc1ccc(Cl)cc1Cl)[C@H](O)[C@@H](O)C(=O)N1CCC2(CCNC2=O)CC1	82.8%	590 µM (≈ 254 µg/mL)	590 µM (≈ 254 µg/mL)	300 µM (≈ 129 µg/mL)	590 µM (≈ 254 µg/mL)	300 µM (≈ 129 µg/mL)	150 µM (≈ 64.5 µg/mL)	590 µM (≈ 254 µg/mL)	300 µM (≈ 129 µg/mL)	150 µM (≈ 64.5 µg/mL)	300 µM (≈ 129 µg/mL)	150 µM (≈ 64.5 µg/mL)	130 µM
O=C(Nc1cccc(Br)c1)[C@H](O)[C@@H](O)C(=O)N1CCC2(CCNC2=O)CC1	79.4%	290 µM (≈ 128 µg/mL)	1160 µM (≈ 511 µg/mL)	580 µM (≈ 255 µg/mL)	290 µM (≈ 128 µg/mL)	280 µM (≈ 123 µg/mL)	290 µM (≈ 128 µg/mL)	290 µM (≈ 128 µg/mL)	1160 µM (≈ 511 µg/mL)	580 µM (≈ 255 µg/mL)	580 µM (≈ 255 µg/mL)	290 µM (≈ 128 µg/mL)	150 µM
O=C(Nc1ccccc1)[C@H](O)[C@@H](O)C(=O)N1CCC2(CCNC2=O)CC1	1.8%	710 µM (≈ 257 µg/mL)	1420 µM (≈ 513 µg/mL)	710 µM (≈ 257 µg/mL)	710 µM (≈ 257 µg/mL)	1420 µM (≈ 513 µg/mL)	710 µM (≈ 257 µg/mL)	1420 µM (≈ 513 µg/mL)	710 µM (≈ 257 µg/mL)	710 µM (≈ 257 µg/mL)	710 µM (≈ 257 µg/mL)	1420 µM (≈ 513 µg/mL)	
C[C@H]1COc2c(N3CCN(C)CC3)c(F)cc3c(=O)c(C(=O)O)cn1c23 [LEVOFLOXACIN]							11 µM (≈ 3.98 µg/mL)	22 µM (≈ 7.95 µg/mL)	11 µM (≈ 3.98 µg/mL)	11 µM (≈ 3.98 µg/mL)	3 µM (≈ 1.08 µg/mL)	5 µM (≈ 1.81 µg/mL)	

Source: ChEMBL document CHEMBL4359915, “Design, synthesis and biological evaluation of novel diazaspiro[4.5]decan-1-one derivatives as potential chitin synthase inhibitors and antifungal agents” (Eur J Med Chem, 2019)
